Biological target: T1, human JAK2 (Homo sapiens, UniProt O60674)
T1 construct: JAK2 (a.a. 828-1132); His tag (N); made in house; host or cells: insect cells (baculovirus)
Assay: In vitro JAK kinase assay (HTRF, phosphorylation of biotinylated peptide)
Assay type: biochemical
Settings: catalytic domain a.a. 828-1132, 30 μM ATP, 500 nM peptide, room temperature 1 hr; read-out: JAK-2 IC50
Experimental: Compounds herein were tested for inhibitory activity of JAK targets according to the following in vitro assay described in Park et al, Analytical Biochemistry 1999, 269, 94-104. The catalytic domains of human JAK1 (a.a. 837-1142), JAK2 (a.a. 828-1132) and JAK3 (a.a. 781-1124) with an N-terminal His tag were expressed using baculovirus in insect cells and purified. The catalytic activity of JAK1, JAK2 or JAK3 was assayed by measuring the phosphorylation of a biotinylated peptide. The phosphorylated peptide was detected by homogenous time resolved fluorescence (HTRF). IC50s of compounds were measured for each kinase in the reactions that contain the enzyme, ATP and 500 nM peptide in 50 mM Tris (pH 7.8) buffer with 100 mM NaCl, 5 mM DTT, and 0.1 mg/mL (0.01%) BSA. The ATP concentration in the reactions was 90 μM for JAK1, 30 μM for Jak2 and 3 μM for JAK3. Reactions were carried out at room temperature for 1 hr and then stopped with 20 μL 45 mM EDTA, 300 nM SA-APC, 6 nM Eu-Py20 in assay buffer (Perkin Elmer, Boston, Mass.). Binding to the Europium labeled antibody took place for 40 minutes and HTRF signal was measured on a Fusion plate reader (Perkin Elmer, Boston, Mass.). Certain of the above compounds were tested according to this assay.

T1 sequence (O60674 828-1132): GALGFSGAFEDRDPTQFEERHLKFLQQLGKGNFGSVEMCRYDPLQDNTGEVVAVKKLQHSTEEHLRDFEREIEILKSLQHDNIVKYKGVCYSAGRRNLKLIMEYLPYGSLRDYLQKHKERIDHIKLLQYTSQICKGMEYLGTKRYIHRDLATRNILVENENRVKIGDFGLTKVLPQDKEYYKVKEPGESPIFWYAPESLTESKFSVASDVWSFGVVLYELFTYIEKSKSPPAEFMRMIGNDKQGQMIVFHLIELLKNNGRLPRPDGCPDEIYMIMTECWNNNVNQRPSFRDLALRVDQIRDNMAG

IC50, < 100 nM:
Cc1cnc(Nc2ccc(N)cc2)nc1-c1cnn(C(CC#N)C2CCCC2)c1 (racemic) [Example 85, 3-(4-(2-(4-aminophenylamino)-5-methylpyrimidin-4-yl)-1H-pyrazol-1-yl)-3-cyclopentylpropanenitrile]
N#CCC(C1CC1)n1cc(-c2ccnc(Nc3ccc(C(=O)N4CCCC4)cc3)n2)cn1 (racemic) [Example 253, 3-cyclopropyl-3-(4-(2-(4-(pyrrolidine-1-carbonyl)phenylamino)pyrimidin-4-yl)-1H-pyrazol-1-yl)propanenitrile]
N#CCC(C1CCCC1)n1cc(-c2ccnc(Nc3ccccc3)n2)cn1 (racemic) [Example 36, 3-cyclopentyl-3-(4-(2-(phenylamino)pyrimidin-4-yl)-1H-pyrazol-1-yl)propanenitrile]
N#CCC(C1CCCC1)n1cc(-c2ccnc(Nc3ccc(C(=O)N4CCC(O)CC4)cc3)n2)cn1 (racemic) [Example 124, 3-cyclopentyl-3-(4-(2-(4-(4-hydroxypiperidine-1-carbonyl)phenylamino)pyrimidin-4-yl)-1H-pyrazol-1-yl)propanenitrile]
N#CCC(C1CCCC1)n1cc(-c2ccnc(Nc3cccc(C(=O)NCCO)c3)n2)cn1 (racemic) [Example 112, 3-(4-(1-(2-cyano-1-cyclopentylethyl)-1H-pyrazol-4-yl)pyrimidin-2-ylamino)-N-(2-hydroxyethyl)benzamide]
Cc1cc(OC2CCC(CC#N)(n3cc(-c4ccnc(Nc5ccc(N6CCOCC6)cc5)n4)cn3)CC2)no1 (single isomer, unassigned) [Example 212, 2-(4-(5-methylisoxazol-3-yloxy)-1-(4-(2-(4-morpholinophenylamino)pyrimidin-4-yl)-1H-pyrazol-1-yl)cyclohexyl)acetonitrile]
N#CCC(C1CCCC1)n1cc(-c2ccnc(Nc3ccc(NC(=O)c4cc(F)cc(F)c4)cc3)n2)cn1 (racemic) [Example 185, N-(4-(4-(1-(2-cyano-1-cyclopentylethyl)-1H-pyrazol-4-yl)pyrimidin-2-ylamino)phenyl)-3,5-difluorobenzamide]
CC1(C)CCOC12CCN(C(=O)c1ccc(Nc3nccc(-c4cnn(C(CC#N)C5CCCC5)c4)n3)cc1)C2 (mixture of isomers) [Example 220, 3-cyclopentyl-3-(4-(2-(4-(4,4-dimethyl-1-oxa-7-azaspiro[4.4]nonane-7-carbonyl)phenylamino)pyrimidin-4-yl)-1H-pyrazol-1-yl)propanenitrile]
N#CCC(C1CCCC1)n1cc(-c2ccnc(Nc3ccc(C(=O)N4CC[C@H](F)C4)cc3)n2)cn1 (mixture of isomers) [Example 229, 3-cyclopentyl-3-(4-(2-(4-((S)-3-fluoropyrrolidine-1-carbonyl)phenylamino)pyrimidin-4-yl)-1H-pyrazol-1-yl)propanenitrile]
COc1cnc(Nc2cccnc2)nc1-c1cnn(C(CC#N)CC2CCN(C(=O)c3ccc(F)cc3F)CC2)c1 (racemic) [Example 347, 4-[1-(2,4-difluorobenzoyl)piperidin-4-yl]-3-{4-[5-methoxy-2-(pyridin-3-ylamino)pyrimidin-4-yl]-1H-pyrazol-1-yl}butanenitrile]
COc1cnc(Nc2cccc(-c3cnco3)c2)nc1-c1cnn(C(CC#N)C2CC2)c1 (racemic) [Example 320, 3-cyclopropyl-3-[4-(5-methoxy-2-{[3-(1,3-oxazol-5-yl)phenyl]amino}pyrimidin-4-yl)-1H-pyrazol-1-yl]propanenitrile]
CN1CCN(C(=O)c2ccc(Nc3nccc(-c4cnn(C(CC#N)C5CC5)c4)n3)cc2)CC1 (racemic) [Example 267, 3-cyclopropyl-3-(4-(2-(4-(4-methylpiperazine-1-carbonyl)phenylamino)pyrimidin-4-yl)-1H-pyrazol-1-yl)propanenitrile]
CCS(=O)(=O)N1CC(CC#N)(n2cc(-c3ccnc(Nc4ccc(C(=O)N5[C@@H]6CC[C@H]5C[C@@H](O)C6)cc4)n3)cn2)C1 [Example 257, 2-(1-(ethylsulfonyl)-3-(4-(2-(4-((3-endo)-3-hydroxy-8-azabicyclo[3.2.1]octane-8-carbonyl)phenylamino)pyrimidin-4-yl)-1H-pyrazol-1-yl)azetidin-3-yl)acetonitrile]
COc1cnc(Nc2cccc([N+](=O)[O-])c2)nc1-c1cnn(C(CC#N)C2CC2)c1 (racemic) [Example 321, 3-cyclopropyl-3-(4-{5-methoxy-2-[(3-nitrophenyl)amino]pyrimidin-4-yl}-1H-pyrazol-1-yl)propanenitrile]
Cc1cnc(Nc2ccc(N3CCOCC3)cc2)nc1-c1cnn(C(CC#N)CC2CCN(S(=O)(=O)c3ccn(C)n3)CC2)c1 (racemic) [Example 61, 4-(1-(1-methyl-1H-pyrazol-3-ylsulfonyl)piperidin-4-yl)-3-(4-(5-methyl-2-(4-morpholinophenylamino)pyrimidin-4-yl)-1H-pyrazol-1-yl)butanenitrile]
Cc1noc(C)c1C(=O)Nc1ccc(Nc2nccc(-c3cnn(C(CC#N)C4CCCC4)c3)n2)cc1 (racemic) [Example 189, N-(4-(4-(1-(2-cyano-1-cyclopentylethyl)-1H-pyrazol-4-yl)pyrimidin-2-ylamino)phenyl)-3,5-dimethylisoxazole-4-carboxamide]
N#CCC(C1CCC1)n1cc(-c2ccnc(Nc3cccc(-c4cnco4)c3)n2)cn1 (racemic) [Example 176, 3-cyclobutyl-3-(4-(2-(3-(oxazol-5-yl)phenylamino)pyrimidin-4-yl)-1H-pyrazol-1-yl)propanenitrile]
Cc1cc(OC2CCC(CC#N)(n3cc(-c4ccnc(Nc5ccc(N6CCOCC6=O)cc5)n4)cn3)CC2)no1 (single isomer, unassigned) [Example 244, 2-(4-(5-methylisoxazol-3-yloxy)-1-(4-(2-(4-(3-oxomorpholino)phenylamino)pyrimidin-4-yl)-1H-pyrazol-1-yl)cyclohexyl)acetonitrile]
CN(C(=O)c1ccc(Nc2nccc(-c3cnn(C(CC#N)C4CCCC4)c3)n2)cc1)[C@H]1CC[C@@H](O)CC1 (mixture of isomers) [Example 217, 4-(4-(1-(2-cyano-1-cyclopentylethyl)-1H-pyrazol-4-yl)pyrimidin-2-ylamino)-N-(cis-4-hydroxycyclohexyl)-N-methylbenzamide]
COc1cnc(Nc2cccc(-c3cnco3)c2)nc1-c1cnn(C(CC#N)C2CCCC2)c1 (racemic) [Example 132, 3-cyclopentyl-3-(4-(5-methoxy-2-(3-(oxazol-5-yl)phenylamino)pyrimidin-4-yl)-1H-pyrazol-1-yl)propanenitrile]
Cc1cc(OC2CCC(CC#N)(n3cc(-c4ccnc(Nc5ccc(N6CCCCC6=O)cc5)n4)cn3)CC2)no1 (single isomer, unassigned) [Example 245, 2-(4-(5-methylisoxazol-3-yloxy)-1-(4-(2-(4-(2-oxopiperidin-1-yl)phenylamino)pyrimidin-4-yl)-1H-pyrazol-1-yl)cyclohexyl)acetonitrile]
CC(=O)N1CCN(C(=O)c2ccc(Nc3nccc(-c4cnn(C(CC#N)C5CCCC5)c4)n3)cc2)CC1 (racemic) [Example 224, 3-(4-(2-(4-(4-acetylpiperazine-1-carbonyl)phenylamino)pyrimidin-4-yl)-1H-pyrazol-1-yl)-3-cyclopentylpropanenitrile]
COc1cnc(Nc2cccc(C(=O)N3CC[C@@H](O)C3)c2)nc1-c1cnn(C(CC#N)C2CC2)c1 (mixture of isomers) [Example 325, 3-cyclopropyl-3-(4-{2-[(3-{[(3R)-3-hydroxypyrrolidin-1-yl]carbonyl}phenyl)amino]-5-methoxypyrimidin-4-yl}-1H-pyrazol-1-yl)propanenitrile]
N#CCC(C1CCCC1)n1cc(-c2ccnc(Nc3cccc(C(=O)N4CCN(c5ccccc5)CC4)c3)n2)cn1 (racemic) [Example 168, 3-cyclopentyl-3-(4-(2-(3-(4-phenylpiperazine-1-carbonyl)phenylamino)pyrimidin-4-yl)-1H-pyrazol-1-yl)propanenitrile]
CCS(=O)(=O)N1CCC(CC(CC#N)n2cc(-c3ccnc(Nc4ccc(C(=O)N(C)C)cc4)n3)cn2)CC1 (racemic) [Example 46, 4-(4-(1-(1-cyano-3-(1-(ethylsulfonyl)piperidin-4-yl)propan-2-yl)-1H-pyrazol-4-yl)pyrimidin-2-ylamino)-N,N-dimethylbenzamide]
N#CCC(C1CCCC1)n1cc(-c2ccnc(Nc3ccc(NC(=O)CN4CCCC4)cc3)n2)cn1 (racemic) [Example 203, N-(4-(4-(1-(2-cyano-1-cyclopentylethyl)-1H-pyrazol-4-yl)pyrimidin-2-ylamino)phenyl)-2-(pyrrolidin-1-yl)acetamide]

Source: US8309718B2, “4-pyrazolyl-N-arylpyrimidin-2-amines and 4-pyrazolyl-N-heteroarylpyrimidin-2-amines as janus kinase inhibitors” (Incyte Corporation, priority 2007, dated 2012)
